pIC50: −log10 of the molar value.
Key:
Aromatase = molecular target: T1, Aromatase (Rattus norvegicus, UniProt P22443)
T1 sequence (P22443 whole entry): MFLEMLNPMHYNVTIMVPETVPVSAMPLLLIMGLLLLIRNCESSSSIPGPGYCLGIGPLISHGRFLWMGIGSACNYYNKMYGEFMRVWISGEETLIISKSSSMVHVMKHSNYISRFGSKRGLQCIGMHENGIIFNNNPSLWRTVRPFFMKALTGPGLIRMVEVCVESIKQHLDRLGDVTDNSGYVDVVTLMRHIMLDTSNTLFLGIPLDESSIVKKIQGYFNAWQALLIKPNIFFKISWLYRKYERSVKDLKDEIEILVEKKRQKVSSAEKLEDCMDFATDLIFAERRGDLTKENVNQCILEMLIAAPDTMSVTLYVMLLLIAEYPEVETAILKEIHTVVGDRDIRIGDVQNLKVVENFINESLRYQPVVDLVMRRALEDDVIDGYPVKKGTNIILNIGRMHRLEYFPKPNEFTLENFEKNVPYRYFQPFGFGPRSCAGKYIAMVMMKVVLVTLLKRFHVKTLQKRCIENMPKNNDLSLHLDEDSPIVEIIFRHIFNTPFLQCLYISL

[1] = molecular target: T2, Cholesterol side-chain cleavage enzyme, mitochondrial (Homo sapiens, UniProt P05108); assay type: functional, Cricetulus griseus
T2 sequence (P05108 whole entry): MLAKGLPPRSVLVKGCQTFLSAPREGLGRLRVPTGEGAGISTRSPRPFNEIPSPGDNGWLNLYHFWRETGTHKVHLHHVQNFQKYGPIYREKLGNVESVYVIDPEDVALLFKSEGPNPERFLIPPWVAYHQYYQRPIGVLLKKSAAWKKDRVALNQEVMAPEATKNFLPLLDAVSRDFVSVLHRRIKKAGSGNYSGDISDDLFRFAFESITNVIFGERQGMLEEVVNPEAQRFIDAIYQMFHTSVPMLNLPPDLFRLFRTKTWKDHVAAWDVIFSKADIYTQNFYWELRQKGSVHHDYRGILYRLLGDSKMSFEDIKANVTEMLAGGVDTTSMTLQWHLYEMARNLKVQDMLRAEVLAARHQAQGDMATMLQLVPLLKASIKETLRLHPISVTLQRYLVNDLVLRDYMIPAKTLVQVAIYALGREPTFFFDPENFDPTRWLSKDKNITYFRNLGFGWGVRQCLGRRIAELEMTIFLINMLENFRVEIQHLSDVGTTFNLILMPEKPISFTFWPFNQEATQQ

Row | SMILES | EDmin (Aromatase) [µM/kg] | pIC50 [1]
1 | CCOC(=O)c1ccc(C2CCCc3cncn32)cc1.Cl (centres undefined) | > 10 | 
2 | Brc1ccc(C2CCCc3cncn32)cc1.Cl (centres undefined) | 0.5 | 
3 | OCc1ccc(C2CCCc3cncn32)cc1 (centres undefined) | 0.5 | 
4 | CCC1(c2ccc(N)cc2)CCC(=O)NC1=O (centres undefined) [AMINOGLUTETHIMIDE] |  | 4.10

Source: ChEMBL document CHEMBL1125250 (J Med Chem, 1991)
